# Measured values published in patent US6992079B2, “Substituted 11-phenyl-dibenzazepine compounds useful for the treatment or prevention of diseases characterized by abnormal cell proliferation” (President Fellows of Harvard College, priority 1997, dated 2006).
# pIC50: −log10 of the molar value.
# Experiments:
# [1] = tested on: 3T3; test: SRB antiproliferative assay; type: cell-based; settings: NIH3T3, 3T3 (Normal mouse), 5% FCS/5 day incubation
# Excerpt: (§1) The cells were passaged using Trypsin (Gibco).
# [2] = tested on: ACHN; test: SRB antiproliferative assay; type: cell-based; settings: Homo sapiens, ACHN (Renal), 5% FCS/5 day incubation
# Excerpt: as §1
# [3] = tested on: CaSki; test: SRB antiproliferative assay; type: cell-based; settings: Homo sapiens, Ca-Ski, CaSki (Cervical), 5% FCS/5 day incubation
# Excerpt: as §1
# [4] = tested on: DU-145; test: SRB antiproliferative assay; type: cell-based; settings: Homo sapiens, DU-145 (Prostate), 5% FCS/5 day incubation
# Excerpt: as §1
# [5] = tested on: GM; test: SRB antiproliferative assay; type: cell-based; settings: GM (Normal human), 5% FCS/5 day incubation
# Excerpt: as §1
# [6] = tested on: HCT-15; test: SRB antiproliferative assay; type: cell-based; settings: Homo sapiens, HCT-15 (Colon), 5% FCS/5 day incubation
# Excerpt: as §1
# [7] = tested on: HTB174; test: SRB antiproliferative assay; type: cell-based; settings: Homo sapiens, HTB174 (Lung), 5% FCS/5 day incubation
# Excerpt: as §1
# [8] = tested on: HUVEC; test: SRB antiproliferative assay; type: cell-based; settings: HUVEC (Normal human), 5% FCS/5 day incubation
# Excerpt: as §1
# [9] = tested on: L929; test: SRB antiproliferative assay; type: cell-based; settings: L929 (Normal mouse), 5% FCS/5 day incubation
# Excerpt: as §1
# [10] = tested on: SK-MEL-28; test: SRB antiproliferative assay; type: cell-based; settings: Homo sapiens, SK-MEL-28 (Melanoma), 5% FCS/5 day incubation
# Excerpt: as §1
# [11] = tested on: SK-OV-3; test: SRB antiproliferative assay; type: cell-based; settings: Homo sapiens, SK-OV-3 (Ovary), 5% FCS/5 day incubation
# Excerpt: as §1
# [12] = tested on: PC-3 human prostate carcinoma; test: Mouse xenograft tumor growth; type: in vivo
# [13] = tested on: PC-3 Human Prostate Tumor cells; test: XTT growth inhibition assay; type: cell-based; settings: PC-3 cells
# [14] = tested on: Ca^2+ from intracellular pools / capacitative Ca^2+ influx; test: Intracellular Ca2+ release and capacitative Ca2+ influx; type: cell-based; settings: in vitro
# [15] = tested on: dominant negative PKR mutant cells; test: Growth of dominant negative PKR mutant cells; type: cell-based; settings: FIG. 12
# [16] = Preliminary toxicity studies in mice and rats; type: in vivo
# [17] = tested on: HCC-2998; test: In-Vitro Testing SRB panel: Colon Cancer; type: cell-based
# Excerpt: The dose-response curve page of the data package is created by plotting the PGs against the log10 of the corresponding concentration for every cell line. The cell line curves are grouped by subpanel. Horizontal lines are provided at the PG values of […]. The concentrations corresponding to points where the curves cross these lines are the GI50, TGI, and LC50, respectively.
# [18] = administered intraperitoneally, orally or subcutaneously
smiles,measurement,setting,value
"O=C(c1ccc([N+](=O)[O-])cc1)N1Cc2ccccc2C(c2ccccc2Cl)c2ccccc21 (stereo not shown) [Compound 28, N-(4′-Nitrobenzoyl)-11-(2′-chlorophenyl)-5,6-dihydro-11H-dibenz[b,e]azepine]",pIC50,[1],< 6.00
same,pIC50,[2],6.15
same,pIC50,[3],6.30
same,pIC50,[4],6.05
same,pIC50,[5],6.05
same,pIC50,[6],6.40
same,pIC50,[7],7.00
same,pIC50,[8],6.15
same,pIC50,[9],6.22
same,pIC50,[10],6.40
same,pIC50,[11],< 6.00
same,apparent toxicity,[12]; PC-3 mouse xenograph,no sign of apparent toxicity
same,growth of PC-3 human prostate carcinoma,[12]; mouse xenograph,significant inhibitory effects on the growth
same,PC-3 prostate cancer cell growth (XTT),[13],inhibits PC-3 prostate cancer cell growth
same,Ca^2+ release from intracellular pools,[14],releases Ca^2+ from intracellular pools
same,capacitative Ca^2+ influx into the cell,[14],inhibits capacitative Ca^2+ influx
same,resistance of dominant negative PKR mutant cells to compound,[15],resistance of dominant negative PKR mutant cells
same,body weight losses,[16]; [18],did not cause significant body weight losses
same,"gross observations of brain, heart, lungs, liver, spleen, kidney and gastrointestinal tract",[16]; [18],no abnormalities were detected
same,systemic toxicity,[16]; mice and rats,no obvious systemic toxicity
COc1cccc2c1C(c1ccccc1Cl)c1cc(Cl)ccc1N(C(=O)c1ccc([N+](=O)[O-])cc1)C2 (stereo not shown) [Compound 31],TGI,[17]; HCC-2998,>1.00E−04 Molar
same,Percent Growth,"[17]; HCC-2998, log10 conc -4 Molar",33%
same,Percent Growth,"[17]; HCC-2998, log10 conc -5 Molar",45%
same,Percent Growth,"[17]; HCC-2998, log10 conc -6 Molar",59%
same,Percent Growth,"[17]; HCC-2998, log10 conc -7 Molar",93%
same,Percent Growth,"[17]; HCC-2998, log10 conc -8 Molar",104%
same,GI50,"[17]; Homo sapiens, HCC 2998",4340 nM
same,CC50,"[17]; Homo sapiens, HCC-2998, read-out: LC50 (the source's name)",> 100000 nM
